Test results from US12458581B2, “Carboxylic acid loaded salt carrier and the method for producing thereof” (priority 2021, dated 2025).

Assay: pH measurement of 0.1 M aqueous solutions
Type: physicochemical
Settings: r.t.; for pH values compound: 0.1 M in millipore water, average of at least three measurements; for pH value / pH value of the reference material (non-loaded carrier salt): 0.1 M; for pH value: compound made via in-situ process
From the text: For the pH measurements, a Seven2Go portable pH meter S2 (pH measuring-range: −2 to 20; resolution: 0.01) with an InLab Ultra Micro-ISM electrode (measuring range: pH −1 to pH 11; low temperature membrane glass type; ceramic diaphragm; reference system with Ag^+ ion trap by argenthal) as well as with an in-lab routine pH electrode (measuring range: pH 0 to pH 14; ceramic diaphragm; reference system with Ag^+ ion trap by argenthal) from Mettler-Toledo AG (Analytical, Switzerland) was used.
For sake of comparability, compounds of the same loading ratio n=2, which is 2:1 of the loaded carboxylic acid with respect to the carrier carboxylic acid, were selected for this analysis. […] The analytes were dissolved in millipore water, stirred for 5 minutes in an airtight vial to perform the pH measurements thereafter at r.t. All measurements were performed at 0.1 molar (M) concentration of the samples, which is 0.1 mol per liter (mol/L).
For sake of reliability, every result stated is the average of at least three single measurements. […] The numbers 1-73 (nr., first row) are used as an assignment for the 73 pairs, comprising the compound of invention (third row), the corresponding carrier carboxylic acid (fourth row) and the loaded carboxylic acid (fifth row), as used in the FIG. 6.

**Q.** Which pH values compound does the source give for `CC(=O)O.CC(=O)O.O=C([O-])CCC(=O)[O-].[Ca+2]` [CaSuc-HAc [2]] here?
**A.** Its pH values compound is 4.69.

**Q.** For `CCC(=O)O.CCC(=O)O.O=C([O-])CCC(=O)[O-].[Ca+2]` [CaSuc-HProp [2]], which pH values compound is on record?
**A.** Its pH values compound is 5.01.

**Q.** For `CC(=O)O.CC(=O)O.CC(=O)O.CC(=O)O.O=C([O-])C(O)C(O)C(=O)[O-].[Ca+2]` (stereo not shown) [CaT-HAc [4], calcium tartrate with loaded acetic acid], which pH values compound is on record?
**A.** The pH values compound was 3.33.

**Q.** What about the pH value of the same compound?
**A.** The pH value was 3.33.

**Q.** With `CC(=O)O.CC(=O)O.CC(=O)O.CC(=O)O.CC(=O)O.O=C([O-])C(O)C(O)C(=O)[O-].[Ca+2]` (stereo not shown) [CaT-HAc [5]] as the compound, how does the pH values compound read?
**A.** Its pH values compound is 3.84.

**Q.** For `CC(=O)O.CC(O)C(=O)O.CCC(=O)O.O=C([O-])C(O)C(O)C(=O)[O-].[Ca+2]` (stereo not shown) [CaT-HAc-HPro-HLac [1,1,1]], which pH values compound is on record?
**A.** Its pH values compound is 3.33.

**Q.** For `CC(O)C(=O)O.CC(O)C(=O)O.O=C([O-])C(O)C(O)C(=O)[O-].[Ca+2]` (stereo not shown) [CaT-HLac [2], calcium tartrate with loaded lactic acid], which pH values compound is on record?
**A.** The pH values compound was 3.27.

**Q.** And the pH value?
**A.** Its pH value is 3.27.

**Q.** For `CCC(=O)O.CCC(=O)O.O=C([O-])C(O)C(O)C(=O)[O-].[Ca+2]` (stereo not shown) [CaT-HProp [2], calcium tartrate with loaded propionic acid], which pH values compound is on record?
**A.** The pH values compound was 3.71.

**Q.** With `CC(=O)O.CC(=O)O.CC(=O)[O-].CC(=O)[O-].[Mg+2]` [MgAc-HAc [2]] as the compound, how does the pH values compound read?
**A.** Its pH values compound is 5.06.

**Q.** With `CC(=O)[O-].CC(=O)[O-].CCC(=O)O.CCC(=O)O.[Mg+2]` [MgAc-HProp [2]] as the compound, how does the pH values compound read?
**A.** The pH values compound was 5.51.

**Q.** Which pH values compound does the source give for `CC(=O)O.CC(=O)O.O=C1OC(C(O)CO)C([O-])=C1O.O=C1OC(C(O)CO)C([O-])=C1O.[Mg+2]` (stereo not shown) [MgAsc-HAc [2]] here?
**A.** The pH values compound was 4.34.

**Q.** What does the source list for `CC(=O)O.CC(=O)O.O=C[O-].O=C[O-].[Mg+2]` [MgFo-HAc [2], magnesium formate with loaded acetic acid]?
**A.** pH values compound: 5.10; pH value: 5.10

**Q.** For `O=CO.O=CO.O=C[O-].O=C[O-].[Mg+2]` [MgFo-HFo [2]], which pH values compound is on record?
**A.** The pH values compound was 6.54.

**Q.** Which pH values compound does the source give for `CC(O)C(=O)O.CC(O)C(=O)O.O=C[O-].O=C[O-].[Mg+2]` (stereo not shown) [MgFo-HLac [2]] here?
**A.** The pH values compound was 3.72.

**Q.** Which pH values compound does the source give for `CC(=O)O.CC(=O)O.O=C([O-])/C=C/C(=O)[O-].[Mg+2]` [MgFum-HAc [2]] here?
**A.** The pH values compound was 4.13.

**Q.** With `O=C([O-])/C=C/C(=O)[O-].O=CO.O=CO.[Mg+2]` [MgFum-HFo [2]] as the compound, how does the pH values compound read?
**A.** The pH values compound was 3.76.

**Q.** Which pH values compound does the source give for `CC(O)C(=O)O.CC(O)C(=O)O.O=C([O-])/C=C/C(=O)[O-].[Mg+2]` [MgFum-HLac [2]] here?
**A.** Its pH values compound is 3.69.

**Q.** With `CCC(=O)O.CCC(=O)O.O=C([O-])/C=C/C(=O)[O-].[Mg+2]` [MgFum-HProp [2]] as the compound, how does the pH values compound read?
**A.** Its pH values compound is 4.24.

**Q.** With `CC(=O)O.CC(=O)O.CC(O)C(=O)[O-].CC(O)C(=O)[O-].[Mg+2]` (stereo not shown) [MgLac-HAc [2]] as the compound, how does the pH values compound read?
**A.** Its pH values compound is 4.43.

**Q.** With `CC(=O)O.CC(O)C(=O)[O-].CC(O)C(=O)[O-].CCC(=O)O.[Mg+2]` (stereo not shown) [MgLac-HAc-HProp [1,1]] as the compound, how does the pH values compound read?
**A.** The pH values compound was 4.48.

**Q.** For `CC(O)C(=O)O.CC(O)C(=O)O.CC(O)C(=O)[O-].CC(O)C(=O)[O-].[Mg+2]` (stereo not shown) [MgLac-HLac [2]], which pH values compound is on record?
**A.** The pH values compound was 3.31.

**Q.** With `CC(O)C(=O)[O-].CC(O)C(=O)[O-].CCC(=O)O.CCC(=O)O.[Mg+2]` (stereo not shown) [MgLac-HProp [2]] as the compound, how does the pH values compound read?
**A.** The pH values compound was 4.45.

**Q.** With `CC(=O)O.CC(=O)O.O=C([O-])CCC(=O)[O-].[Mg+2]` [MgSuc-HAc [2]] as the compound, how does the pH values compound read?
**A.** The pH values compound was 4.69.

**Q.** Which pH values compound does the source give for `CCC(=O)O.CCC(=O)O.O=C([O-])CCC(=O)[O-].[Mg+2]` [MgSuc-HProp [2]] here?
**A.** Its pH values compound is 5.18.

**Q.** Which “pH value of the reference material (non-loaded carrier salt)” value does the source give for `O=C([O-])C(O)C(O)C(=O)[O-].[Ca+2]` (stereo not shown) [calcium tartrate, reference compound] here?
**A.** Its value is 7.33.

**Q.** With `O=C[O-].O=C[O-].[Mg+2]` [magnesium formate, reference compound] as the compound, how does the “pH value of the reference material (non-loaded carrier salt)” value read?
**A.** The value was 7.90.
